Where two headings read alike, the source gives them in different places.
What was measured:
Assay in all cases: Minimal inhibitory concentration, nutrient agar plate
[1] = system: Escherichia coli H; assay type: cell-based; conditions: inoculum size 10^8, pH 7.0, read-out: Minimal inhibitory concentration
[2] = system: E. coli JC-2; assay type: cell-based; conditions: Escherichia coli, JC2, inoculum size 10^8, pH 7.0, read-out: Minimal inhibitory concentration
[3] = system: E. coli 377; assay type: cell-based, Escherichia coli; conditions: Escherichia coli, 377, inoculum size 10^8, pH 7.0, read-out: Minimal inhibitory concentration
[4] = system: E. coli 73; assay type: cell-based, Escherichia coli; conditions: Escherichia coli, 73, inoculum size 10^8, pH 7.0, read-out: Minimal inhibitory concentration
[5] = system: Serratia marsescens 13880; assay type: cell-based; conditions: Serratia, 13880, inoculum size 10^8, pH 7.0, read-out: Minimal inhibitory concentration
[6] = system: Klebsiella pneumoniae; assay type: cell-based; conditions: inoculum size 10^8, pH 7.0, read-out: Minimal inhibitory concentration
[7] = system: Klebsiella sp. 363; assay type: cell-based; conditions: inoculum size 10^8, pH 7.0, read-out: Minimal inhibitory concentration
[8] = system: Enterobacter cloacae 233; assay type: cell-based; conditions: Enterobacter cloacae, 233, inoculum size 10^8, pH 7.0, read-out: Minimal inhibitory concentration
[9] = system: Proteus mirabilis PR-4; assay type: cell-based; conditions: inoculum size 10^8, pH 7.0, read-out: Minimal inhibitory concentration
[10] = system: P. morganii No. 9; assay type: cell-based, Proteus morganii; conditions: Morganella morganii, NO.9, inoculum size 10^8, pH 7.0, read-out: Minimal inhibitory concentration
[11] = system: P. vulgaris CN-329; assay type: cell-based; conditions: Proteus vulgaris, CN329, inoculum size 10^8, pH 7.0, read-out: Minimal inhibitory concentration
[12] = system: Pseudomonas aeruginosa Denken; assay type: cell-based; conditions: inoculum size 10^8, pH 7.0, read-out: Minimal inhibitory concentration
[13] = system: Ps. aeruginosa 25619; assay type: cell-based, Pseudomonas aeruginosa; conditions: Pseudomonas aeruginosa, 25619, inoculum size 10^8, pH 7.0, read-out: Minimal inhibitory concentration
[14] = system: Ps. aeruginosa 24; assay type: cell-based, Pseudomonas aeruginosa; conditions: Pseudomonas aeruginosa, 24, inoculum size 10^8, pH 7.0, read-out: Minimal inhibitory concentration
[15] = ester, in the presence of 5% horse serum, sodium salt

SMILES	MIC ([1]; as sodium salt)	MIC ([2]; as sodium salt)	MIC ([3]; as sodium salt)	MIC ([4]; as sodium salt)	MIC ([5]; as sodium salt)	MIC ([6]; as sodium salt)	MIC ([7]; SP.363, as sodium salt)	MIC ([8]; as sodium salt)	MIC ([9]; PR4, as sodium salt)	MIC ([10]; as sodium salt)	MIC ([11]; as sodium salt)	MIC ([12]; as sodium salt)	MIC ([13]; as sodium salt)	MIC ([14]; as sodium salt)	other results
CC1=C(C(=O)O)N2C(=O)[C@@H](NC(=O)C(N)c3ccccc3)[C@H]2OC1 (stereo partly drawn) [(1), 7β-(α-phenylglycinamido)3-methyl-1-oxadethia-3-cephem-4-carboxlic acid, reference compound]	> 100 mg/L	> 100 mg/L	> 100 mg/L	> 100 mg/L	> 100 mg/L	> 100 mg/L	> 100 mg/L	> 100 mg/L	> 100 mg/L	> 100 mg/L	> 100 mg/L	> 100 mg/L	> 100 mg/L	> 100 mg/L	–
CC(=O)OCC1=C(C(=O)O)N2C(=O)[C@@H](NC(=O)Cc3cccs3)[C@H]2OC1 [(2), 7β-(2thienylacetamido)-1-oxadethiacephalosporanic acid, reference compound]	0.39 mg/L	6.25 mg/L	> 100 mg/L	> 100 mg/L	> 100 mg/L	1.56 mg/L	> 100 mg/L	> 100 mg/L	1.56 mg/L	> 100 mg/L	> 100 mg/L	> 100 mg/L	> 100 mg/L	> 100 mg/L	–
Cc1nnc(SCC2=C(C(=O)O)N3C(=O)[C@@H](NC(=O)Cn4cnnn4)[C@H]3OC2)s1 [(3), 7β-(1tetrazolyl)acetamido-3-(2-methyl-1,3,4-thiadiazol-5-yl)thiomethl-1-oxadethia-3-cephem-4-carboxylic acid, reference compound]	1.56 mg/L	1.56 mg/L	25 mg/L	> 100 mg/L	> 100 mg/L	3.13 mg/L	> 100 mg/L	> 100 mg/L	1.56 mg/L	50 mg/L	> 100 mg/L	> 100 mg/L	> 100 mg/L	> 100 mg/L	–
Cn1nnnc1SCC1=C(C(=O)O)N2C(=O)[C@@H](NC(=O)C(O)c3ccccc3)[C@H]2OC1 (stereo partly drawn) [(4), 7β-mandelamido3-(1-methyltetrazol-5-yl)thiomethyl-1-oxadethia-3-cephm-4-carboxylic acid, reference compound]	0.1 mg/L	0.2 mg/L	50 mg/L	> 100 mg/L	100 mg/L	0.2 mg/L	> 100 mg/L	> 100 mg/L	0.2 mg/L	100 mg/L	> 100 mg/L	> 100 mg/L	> 100 mg/L	> 100 mg/L	–
Cn1nnnc1SCC1=C(C(=O)O)N2C(=O)[C@@H](NC(=O)C(C(=O)O)c3ccccc3)[C@H]2OC1 (stereo partly drawn) [Example III-1, 7β-(α-phenyl-α-carboxyacetamido)-3-(1-methyltetrazol-5-yl)thiomethyl-1-oxadethia-3-cephem-4-carboxylic acid]	0.1 mg/L	0.2 mg/L	0.2 mg/L	> 100 mg/L	0.78 mg/L	0.2 mg/L	–	0.39 mg/L	0.39 mg/L	0.39 mg/L	100 mg/L	> 100 mg/L	3.13 mg/L	> 100 mg/L	–
Cn1nnnc1SCC1=C(C(=O)[O-])N2C(=O)[C@@H](NC(=O)C(C(=O)Oc3ccc4c(c3)CCC4)c3ccccc3)[C@H]2OC1.[Na+] (stereo partly drawn) [Example III-2, sodium 7β-[α-(5-indanyl)oxycarbonyl-α-phenylacetamido]-3-(1-methyltetrazol-5-yl)thiomethyl-1-oxadethia-3-cephem-4-carboxylate]	–	–	–	–	–	–	–	–	–	–	–	–	–	–	MIC [1, 15]: 0.1 mg/L; MIC [2, 15]: 0.2 mg/L; MIC [3, 15]: 0.2 mg/L; MIC [4, 15]: > 100 mg/L; MIC [5, 15]: 0.78 mg/L; MIC [6, 15]: 0.2 mg/L; MIC ([7]; SP.363, ester, in the presence of 5% horse serum, sodium salt): > 100 mg/L; MIC [8, 15]: 0.39 mg/L; MIC ([9]; PR4, ester, in the presence of 5% horse serum, sodium salt): 0.39 mg/L; MIC [10, 15]: 0.39 mg/L; MIC [11, 15]: 50 mg/L; MIC [12, 15]: > 100 mg/L; MIC [13, 15]: 6.25 mg/L; MIC [14, 15]: > 100 mg/L
Cn1nnnc1SCC1=C(C(=O)O)N2C(=O)[C@@H](NC(=O)C(C(=O)O)c3cccs3)[C@H]2OC1 (stereo partly drawn) [Example III-8, 7β-[α-(2-thienyl)-α-carboxyacetamido]-3-(1-methyltetrazol-5-yl)thiomethyl-1-oxadethia-3-cephem-4-carboxylic acid]	0.1 mg/L	0.1 mg/L	0.2 mg/L	> 100 mg/L	0.78 mg/L	0.1 mg/L	> 100 mg/L	0.2 mg/L	0.2 mg/L	0.39 mg/L	50 mg/L	> 100 mg/L	3.13 mg/L	> 100 mg/L	–
Cn1nnnc1SCC1=C(C(=O)O)N2C(=O)[C@@H](NC(=O)C(C(=O)O)c3ccsc3)[C@H]2OC1 (stereo partly drawn) [Example III-9, 7β-[α-(3-thienyl)-α-carboxyacetamido]-3-(1-methyltetrazol-5-yl)thiomethyl-1-oxadethia-3-cephem-4-carboxylic acid]	0.1 mg/L	0.1 mg/L	0.2 mg/L	> 100 mg/L	0.78 mg/L	0.2 mg/L	> 100 mg/L	0.39 mg/L	0.39 mg/L	0.39 mg/L	100 mg/L	> 100 mg/L	6.25 mg/L	–	–
O=C(O)Cn1nnnc1SCC1=C(C(=O)O)N2C(=O)[C@@H](NC(=O)C(C(=O)O)c3ccccc3)[C@H]2OC1 (stereo partly drawn) [Example III-10, 7β-(α-carboxy-α-phenylacetamido)-3-(1-carboxymethyltetrazol-5-yl)thiomethyl-1-oxadethia-3-cephem-4-carboxylic acid]	0.78 mg/L	3.13 mg/L	0.25 mg/L	> 100 mg/L	50 mg/L	3.13 mg/L	> 100 mg/L	12.5 mg/L	0.78 mg/L	0.78 mg/L	> 100 mg/L	> 100 mg/L	100 mg/L	> 100 mg/L	–
O=C(O)Cn1nnnc1SCC1=C(C(=O)O)N2C(=O)[C@@H](NC(=O)C(C(=O)O)c3cccs3)[C@H]2OC1 (stereo partly drawn) [Example III-11, 7β-[α-(2-thienyl)-α-carboxyacetamido]-3-(1-carboxymethyltetrazol-5-yl)thiomethyl-1-oxadethia-3-cephem-4-carboxylic acid]	0.78 mg/L	12.5 mg/L	6.25 mg/L	> 100 mg/L	25 mg/L	3.13 mg/L	> 100 mg/L	25 mg/L	1.56 mg/L	1.56 mg/L	> 100 mg/L	> 100 mg/L	> 100 mg/L	–	–
Cc1nnc(SCC2=C(C(=O)O)N3C(=O)[C@@H](NC(=O)C(C(=O)O)c4ccccc4)[C@H]3OC2)s1 (stereo partly drawn) [Example III-12, 7β-(α-phenyl-α-carboxyacetamido)-3-(2-methyl-1,3,4-thiadiazol-5-yl)thiomethyl-1-oxadethia-3-cephem-4-carboxylic acid]	0.2 mg/L	0.39 mg/L	0.78 mg/L	> 100 mg/L	1.56 mg/L	0.78 mg/L	> 100 mg/L	1.56 mg/L	0.39 mg/L	0.39 mg/L	100 mg/L	> 100 mg/L	3.13 mg/L	> 100 mg/L	–

— US4323567A, “Arylmalonamido-1-oxadethiacephalosporins” (priority 1976, dated 1982)
